Test results reported in ChEMBL document CHEMBL1142159, “Aph(3')-IIc, an aminoglycoside resistance determinant from Stenotrophomonas maltophilia” (2007).
In brackets after ≈: the same amount, converted by molar mass.

Columns and labels:
Escherichia coli [1] = test: Antimicrobial activity against recombinant Escherichia coli DHalpha expressing pBAD [aph(3')-2]; format: functional; conditions: DH5alpha
Escherichia coli [2] = test: Antimicrobial activity against recombinant Escherichia coli DH5alpha expressing pBAD; format: functional
Escherichia coli [3] = test: Antimicrobial activity against recombinant Escherichia coli DH5-alpha expressing pBAD in the presence of arabinose; format: functional; conditions: DH5alpha
[4] = system: Stenotrophomonas maltophilia; test: Antimicrobial activity against Stenotrophomonas maltophilia K279a (aph FS) mutant; format: functional
Escherichia coli [5] = test: Antimicrobial activity against recombinant Escherichia coli DH5-alpha expressing pBAD [aph(3')-2] in the presence of arabinose; format: functional; conditions: DH5alpha
[6] = system: Stenotrophomonas maltophilia; test: Antimicrobial activity against Stenotrophomonas maltophilia K279a mutant; format: functional
Escherichia coli [7] = conditions: DH5alpha
Escherichia coli [8] = conditions: DH5alpha; remark: listed apart in the source
Escherichia coli [9] = conditions: DH5alpha; remark: listed apart in the source
Escherichia coli [10] = conditions: DH5alpha; remark: listed apart in the source

| Compound | MIC (Escherichia coli [1]) [µg/mL] | MIC (Escherichia coli [2]) [µg/mL] | MIC (Escherichia coli [3]) [µg/mL] | MIC [4] [µg/mL] | MIC (Escherichia coli [5]) [µg/mL] | MIC [6] [µg/mL] | MIC (Escherichia coli [7]) [µg/mL] | MIC (Escherichia coli [8]) [µg/mL] | MIC (Escherichia coli [9]) [µg/mL] | MIC (Escherichia coli [10]) [µg/mL] |
| --- | --- | --- | --- | --- | --- | --- | --- | --- | --- | --- |
| NC[C@@H]1O[C@H](O[C@H]2[C@@H](O)[C@H](O[C@@H]3[C@@H](O)[C@H](N)C[C@H](N)[C@H]3O[C@H]3O[C@H](CN)[C@@H](O)[C@H](O)[C@H]3N)O[C@@H]2CO)[C@H](N)[C@@H](O)[C@@H]1O [FRAMYCETIN] | 0.5 | 0.5 | 0.5 | 64 (≈ 104 µM) | 64 | 512 (≈ 833 µM) |  |  |  |  |
| GENTAMICIN |  |  |  | 16 |  | 16 | 1 | 1 | 1 | 1 |
| NCC[C@H](O)C(=O)N[C@@H]1C[C@H](N)[C@@H](O[C@H]2O[C@H](CN)[C@@H](O)[C@H](O)[C@H]2O)[C@H](O)[C@H]1O[C@H]1O[C@H](CO)[C@@H](O)[C@H](N)[C@H]1O [AMIKACIN] | 0.5 | 0.5 | 0.5 | 64 (≈ 109 µM) | 4 | 64 (≈ 109 µM) |  |  |  |  |
| NC[C@@H]1O[C@H](O[C@H]2[C@@H](O)[C@H](O[C@@H]3[C@@H](O)[C@H](N)C[C@H](N)[C@H]3O[C@H]3O[C@H](CO)[C@@H](O)C[C@H]3N)O[C@@H]2CO)[C@H](N)[C@@H](O)[C@@H]1O[C@H]1O[C@H](CO)[C@@H](O)[C@H](O)[C@@H]1O [LIVIDOMYCIN] | 4 | 4 | 4 | 128 (≈ 168 µM) | 8 | 128 (≈ 168 µM) |  |  |  |  |
| butirosin |  |  |  | 1 |  | 8 | 0.125 | 0.125 | 4 | 0.125 |
| NC[C@@H]1O[C@H](O[C@H]2[C@@H](O)[C@H](O[C@@H]3[C@@H](O)[C@H](N)C[C@H](N)[C@H]3O[C@H]3O[C@H](CO)[C@@H](O)[C@H](O)[C@H]3N)O[C@@H]2CO)[C@H](N)[C@@H](O)[C@@H]1O [PAROMOMYCIN] | 0.25 | 0.25 | 0.25 | 64 (≈ 104 µM) | 128 | 256 (≈ 416 µM) |  |  |  |  |
| NC[C@H]1O[C@H](O[C@H]2[C@H](O)[C@@H](O[C@H]3O[C@H](CO)[C@@H](O)[C@H](N)[C@H]3O)[C@H](N)C[C@@H]2N)[C@H](N)C[C@@H]1O [TOBRAMYCIN] | 0.5 | 0.5 | 0.5 | 32 (≈ 68.4 µM) | 8 | 32 (≈ 68.4 µM) |  |  |  |  |
| NC[C@H]1O[C@H](O[C@H]2[C@H](O)[C@@H](O[C@H]3O[C@H](CO)[C@@H](O)[C@H](N)[C@H]3O)[C@H](N)C[C@@H]2N)[C@H](O)[C@@H](O)[C@@H]1O [KANAMYCIN] |  |  |  | 8 (≈ 16.5 µM) |  | 256 (≈ 528 µM) |  |  |  |  |
| CN[C@@H]1[C@@H](O)[C@@H](O[C@@H]2[C@@H](O)[C@H](O[C@H]3OC(CN)=CC[C@H]3N)[C@@H](N)C[C@H]2N)OC[C@]1(C)O [SISOMICIN] | 0.125 | 0.125 | 0.125 | 8 (≈ 17.9 µM) | 0.125 | 8 (≈ 17.9 µM) |  |  |  |  |
